Data on 1 compound can be found in article PMC6941654, “Glucosyltransferase CsUGT78A14 Regulates Flavonols Accumulation and Reactive Oxygen Species Scavenging in Response to Cold Stress in Camellia sinensis” (Frontiers in Plant Science, 2019).

In this experiment the target is T1, CsUGT78A14-1 (Camellia sinensis, UniProt A0A109P632).
T1 construct: gene UGT78A14; Ala438 allele
Kind of experiment: UDP-Glo glycosyltransferase assay, steady-state kinetics. The class given is biochemical. The conditions noted are these: co-substrate UDP-glucose (Glc row), donor fixed at 100 μM; acceptor varied 1-500 μM; optimized pH and temperature. The text has this:
UDP-Glo glycosyltransferase assay, steady-state kinetics on CsUGT78A14-1

T1 sequence (A0A109P632 entry or part of it): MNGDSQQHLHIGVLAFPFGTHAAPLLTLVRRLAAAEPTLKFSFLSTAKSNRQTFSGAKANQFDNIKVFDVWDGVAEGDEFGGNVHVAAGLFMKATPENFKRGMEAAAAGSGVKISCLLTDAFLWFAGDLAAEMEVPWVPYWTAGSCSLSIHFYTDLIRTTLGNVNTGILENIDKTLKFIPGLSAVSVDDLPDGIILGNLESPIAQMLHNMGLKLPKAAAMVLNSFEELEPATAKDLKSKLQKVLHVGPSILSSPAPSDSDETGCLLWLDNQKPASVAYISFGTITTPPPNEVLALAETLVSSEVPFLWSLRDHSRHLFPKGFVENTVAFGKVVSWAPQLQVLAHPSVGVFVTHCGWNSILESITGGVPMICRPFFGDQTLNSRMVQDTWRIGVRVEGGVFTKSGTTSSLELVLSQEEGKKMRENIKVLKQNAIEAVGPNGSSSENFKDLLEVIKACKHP

As a reminder, the Km is the concentration of substrate that gives half-maximal velocity. For `O=c1c(O)c(-c2ccc(O)cc2)oc2cc(O)cc(O)c12` [kaempferol], the Michaelis constant (Km) came out at 27.1 µM.
